Measurements: patent publication US6924309B2 (Children, Youth and Women's Health Service Incorporated, priority 1999, dated 2005)

Assays:
[1] = Petri-dish thin film autoxidation of arachidonic acid with thia fatty acids and sulfides (HPLC)
Method: A stock solution in dichioromethane (2 ml) containing arachidonic acid 1 (18 mg) and 3-[(3Z,6Z)-nona-3,6dienylthio]propionic acid 106 (18 mg) was prepared with lauric acid (18 mg) as an internal standard. Samples of the stock solution (100 μl) were added to glass Petri-dishes followed by ethanol (400 μl). After evaporation of the solvent, a well-distributed thin film was formed on each Petri-dish. The Petri-dishes were placed in a desiccator, which was then evacuated, filled with oxygen and stored in the darkness. Dishes were removed from the desiccator after 1, 2, 3, 5 and 7 days. The mixture on each dish was redissolved in diethyl ether and transferred to a 2 ml vial. After evaporation of the solvent, the residue was dissolved in the HPLC mobile phase (100 μl) and 10% of the solution was analysed by HPLC using a reverse phase column (octadecylsilane) (4.6 mm×250 mm, 3 μm) and a refractive index detector.
Autoxidation of arachidonic acid was conducted in the presence of compound 19 and lauric acid. Stock solutions of arachidonic acid, compound 19 and lauric acid in dichloromethane with equal concentrations were added to a 25 ml round-bottomed flask, and the solvent was evaporated to leave a thin film on the internal surface of the flask. The flask was then filled with oxygen and kept in the dark. The percentages of arachidonic acid and compound 19 remaining after 7 days were measured by HPLC. The same assay was carried out simultaneously with several flasks but the results were not reproducible. The variation was attributed to differences in oxygen concentration and the surface area of the thin films formed in the flasks. Therefore, in order to establish a reproducible assay for the analysis of the autoxidation of arachidonic acid, Petri-dishes with uniform size (80 mm in diameter) were used instead of flasks for thin film formation and the oxidation was carried out by placing the Petri-dishes in a dessicator filled with oxygen. To assess this method, thin firms of arachidonic acid with lauric acid as a standard were prepared on six Petri-dishes using identical treatment, and then subjected to oxidation in the same dessicator filled with oxygen. After 24 h, the percentage of arachidonic acid recovered following autoxidation in each Petri-dish was determined by HPLC. […] The advantage of using a Petri-dish over a flask is that the thin films on each Petri-dish are spread over the same area, and each Petri-dish is exposed to oxygen to the same extent.
Using the Petri-dish assay method, the effects of the thia PUFAs and sulfides 106 and 108-111, along with compounds 18, 19 and 3-[(Z,Z,Z)-(octadeca-9,12,15-trienylthio)] propionic acid 112 which were available in the laboratory, on the autoxidation of arachidonic acid, were examined. In addition, the stability of these compounds in the presence of arachidonic acid was also investigated. Arachidonic acid and lauric acid as a standard were mixed with each sulfur compound at different ratios and the mixtures were subjected to thin film autoxidation. The mixtures were analysed by HPLC after 1,2,3,5 and 7 days.

[2] = Reaction with tert-butyl hydroperoxide to the sulfoxide; format: physicochemical; details: CH2Cl2, RT, after 9 h
From the text: To further investigate the possible involvement of hydroperoxide-induced sulfoxide formation in the antioxidant behaviour of the γ-thia and β-thia fatty acids 18, 19, 106, 108, 109 and 112, compounds 108 and 109 (in a ratio of 1:1 in CH2Cl2) were allowed to react with tert-butyl hydroperoxide. [drawing 37]
The reaction was monitored by TLC and ^1H NMR analysis. […] The ^1H NMR spectrum of compound 114 contains two multiplets at δ2.88-3.07 and two doublets at δ3.63-3.86 corresponding to the methylene protons on the carbons adjacent to sulfur.

[3] = ratio arachidonic acid:compound 1:1, 1 day
[4] = ratio arachidonic acid:compound 1:1, 2 days
[5] = ratio arachidonic acid:compound 1:1, 3 days
[6] = ratio arachidonic acid:compound 1:1, 5 days
[7] = ratio arachidonic acid:compound 1:1, 7 days

| SMILES | Antioxidant effect on autoxidation of arachidonic acid (in words) [1] | Arachidonic acid (%) recovered following autoxidation in the presence of the compound [1, 3] [%] | Compound (%) recovered following autoxidation with arachidonic acid [1, 3] [%] | Arachidonic acid (%) recovered following autoxidation in the presence of the compound [1, 4] [%] | Compound (%) recovered following autoxidation with arachidonic acid [1, 4] [%] | Arachidonic acid (%) recovered following autoxidation in the presence of the compound [1, 5] [%] | Compound (%) recovered following autoxidation with arachidonic acid [1, 5] [%] | Arachidonic acid (%) recovered following autoxidation in the presence of the compound [1, 6] [%] | Compound (%) recovered following autoxidation with arachidonic acid [1, 6] [%] | Compound (%) recovered following autoxidation with arachidonic acid [1, 7] [%] | Conversion to the sulfoxide by tert-butyl hydroperoxide [2] |
| --- | --- | --- | --- | --- | --- | --- | --- | --- | --- | --- | --- |
| CCCCCCCCCCCCCCSCCC(=O)O [Compound 108] | effective antioxidants | 98 | 99 | 93 | 91 | 79 | 86 | 30 | 44 | 37 | completely converted |
| CCCCCCCCCCCCCCSCC(=O)O [Compound 109, 2-Tetradecylthioacetic acid] | not significantly inhibited | 53 | 50 | 10 | 16 |  | 17 |  | 17 | 16 | 55% |
